Experiments:
D(1B) dopamine receptor [1] = molecular target: T1, D(1B) dopamine receptor (Homo sapiens, UniProt P21918); assay: Binding affinity to human dopamine D5 receptor
Histamine H2 receptor [2] = molecular target: T2, Histamine H2 receptor (Homo sapiens, UniProt P25021); assay: Binding affinity to human histamine H2 receptor
[3] = molecular target: T3, Muscarinic acetylcholine receptor M3 (Homo sapiens, UniProt P20309); assay: Binding affinity to human muscarinic M3 receptor
Target sequence in this assay (P20309 whole entry): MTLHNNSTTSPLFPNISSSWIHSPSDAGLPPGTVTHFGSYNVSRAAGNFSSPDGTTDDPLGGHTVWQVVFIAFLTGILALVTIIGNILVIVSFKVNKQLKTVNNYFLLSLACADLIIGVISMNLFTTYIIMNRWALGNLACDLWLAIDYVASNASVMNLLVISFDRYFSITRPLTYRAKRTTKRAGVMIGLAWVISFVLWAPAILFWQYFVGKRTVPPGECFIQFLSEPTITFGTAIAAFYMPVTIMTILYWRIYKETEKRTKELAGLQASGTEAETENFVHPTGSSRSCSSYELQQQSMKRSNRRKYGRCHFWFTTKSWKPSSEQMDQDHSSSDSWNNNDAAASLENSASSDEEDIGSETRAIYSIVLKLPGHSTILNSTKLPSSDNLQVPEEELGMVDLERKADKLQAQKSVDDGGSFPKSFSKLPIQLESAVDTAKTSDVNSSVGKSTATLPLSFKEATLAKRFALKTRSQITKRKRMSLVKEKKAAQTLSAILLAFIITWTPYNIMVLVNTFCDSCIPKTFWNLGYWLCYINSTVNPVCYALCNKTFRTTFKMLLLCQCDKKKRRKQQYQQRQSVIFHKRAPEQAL

Histamine H2 receptor [4] = molecular target: T2, Histamine H2 receptor; conditions: 10 uM
Description: Inhibition of human histamine H2 receptor at 10 uM

[5] = molecular target: T3, Muscarinic acetylcholine receptor M3; assay: Displacement of [3H]QNB from human muscarinic M3 receptor at 10 uM
Target sequence in this assay (P20309 whole entry, looked up): as the sequence (P20309 whole entry) above

D(1B) dopamine receptor [6] = molecular target: T1, D(1B) dopamine receptor; assay: Displacement of [3H]SCH23390 from human dopamine D5 receptor at 10 uM

T1 sequence (P21918 whole entry): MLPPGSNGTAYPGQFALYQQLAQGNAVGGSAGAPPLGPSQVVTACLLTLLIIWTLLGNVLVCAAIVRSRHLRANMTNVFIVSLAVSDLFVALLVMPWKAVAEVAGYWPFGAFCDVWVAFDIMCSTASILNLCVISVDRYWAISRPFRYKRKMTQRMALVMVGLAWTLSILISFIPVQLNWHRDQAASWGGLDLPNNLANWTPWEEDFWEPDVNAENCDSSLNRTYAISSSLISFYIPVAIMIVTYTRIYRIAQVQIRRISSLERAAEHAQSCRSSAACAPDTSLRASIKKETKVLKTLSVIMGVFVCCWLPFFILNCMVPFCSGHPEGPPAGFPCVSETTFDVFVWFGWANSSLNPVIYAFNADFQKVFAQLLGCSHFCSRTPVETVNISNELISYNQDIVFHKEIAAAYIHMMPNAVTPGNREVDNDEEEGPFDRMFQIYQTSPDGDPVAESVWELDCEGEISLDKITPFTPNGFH
T2 sequence (P25021 whole entry): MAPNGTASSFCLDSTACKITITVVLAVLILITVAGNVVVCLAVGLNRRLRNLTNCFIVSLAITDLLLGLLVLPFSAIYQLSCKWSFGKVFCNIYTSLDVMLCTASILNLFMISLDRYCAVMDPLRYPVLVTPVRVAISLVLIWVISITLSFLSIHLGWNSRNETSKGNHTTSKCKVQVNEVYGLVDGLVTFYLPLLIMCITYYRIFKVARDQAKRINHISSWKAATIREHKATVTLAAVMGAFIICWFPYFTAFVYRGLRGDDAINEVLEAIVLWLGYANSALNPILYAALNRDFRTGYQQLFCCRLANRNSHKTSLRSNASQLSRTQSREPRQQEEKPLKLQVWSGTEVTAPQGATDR

| Ki (D(1B) dopamine receptor [1]) [µM] | Ki (Histamine H2 receptor [2]) [µM] | Ki [3] [µM] | inhibition (Histamine H2 receptor [4]) [%] | inhibition [5] [%] | inhibition (D(1B) dopamine receptor [6]) [%] | SMILES |
| --- | --- | --- | --- | --- | --- | --- |
| > 10 | > 10 | > 10 | > 50 |  |  | C[C@@]12CCC[C@]3(C)C(=O)O[C@H](C[C@@]4(CO4)[C@]1(O)CCc1ccoc1)[C@H]23 [LEONOTININ] |
|  |  |  |  | > 50 | > 50 | C[C@@]12CCC[C@]3(C)C(=O)O[C@H](C[C@@]4(CO4)[C@]14CC[C@]1(COC(O)C1)O4)[C@H]23 (mixture of isomers) |
|  |  |  |  | > 50 |  | CO[C@H]1C[C@]2(CC[C@@]3(O2)[C@]2(CO2)C[C@@H](OC(C)=O)[C@@H]2[C@]34CCC[C@]2(C)C(=O)OC4)CO1 |

Source: ChEMBL document CHEMBL2034903, “Bis-spirolabdane diterpenoids from Leonotis nepetaefolia” (J Nat Prod, 2012)
